Entries after “also recorded” stand apart in the source; their conditions may differ.
Tests used:
Type in all cases: cell-based
SfMCT [1] = molecular target: T1, SfMCT (Syntrophobacter fumaroxidans, UniProt A0LNN5); test: Micro pH electrode-based transport assay, SfMCT-expressing E. coli JA202; conditions: 10 mM compound (pH 6.5) added to bacterial suspension pH 6.7
T1 construct: expressed in transfected cells; host or cells: E. coli JA202 (MC4100 glcA::cat lldP::kan), plasmid pEXT20-SfMCT-3C-10His
T1 sequence (A0LNN5 1-412): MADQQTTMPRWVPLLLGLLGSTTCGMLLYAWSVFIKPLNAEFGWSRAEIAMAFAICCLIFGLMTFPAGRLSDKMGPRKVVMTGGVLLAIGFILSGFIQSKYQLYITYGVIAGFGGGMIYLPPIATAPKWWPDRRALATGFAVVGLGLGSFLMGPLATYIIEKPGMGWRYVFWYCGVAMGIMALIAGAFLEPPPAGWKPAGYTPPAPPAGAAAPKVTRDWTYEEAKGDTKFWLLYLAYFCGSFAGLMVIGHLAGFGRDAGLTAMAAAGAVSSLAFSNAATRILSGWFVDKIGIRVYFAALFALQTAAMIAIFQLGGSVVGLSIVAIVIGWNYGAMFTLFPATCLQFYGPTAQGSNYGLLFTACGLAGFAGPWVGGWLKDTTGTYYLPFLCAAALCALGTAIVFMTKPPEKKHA
Protocol: A measuring set up as previously reported[18] was used for micro pH electrode-based transport measurements. SfMCT was expressed in E. coli JA202 (MC4100 glcA::cat lldP::kan)[15] as described for uptake experiments. After expression, bacteria were pelleted (5,200 × g, 10 min, room temperature), washed twice in assay solution (250 mM KCl, 1 mM MgSO4, 2 mM CaCl2; 5,200 × g, 10 min, room temperature) and finally resuspended in assay solution to a bacterial density of OD600 15. Compounds that were assayed for proton-coupled transport were dissolved in assay solution and the pH was adjusted to 6.5. 800 µl of bacteria suspension were transferred into a 2 ml reaction tube (Eppendorf) and the pH value of the bacterial suspension (extracellular medium) was measured using a micro pH electrode with integrated temperature sensor (InLab Micro Pro, Mettler Toledo) under constant stirring. The pH of the bacterial suspension was adjusted to pH 6.7 using potassium hydroxide and hydrochloric acid. The SevenCompact pH-meter (Mettler Toledo), together with LabX direct pH 2.3 software (Mettler Toledo), were used for automatic recording in 15 s intervals. Measurements were initiated by adding 10 mM of the corresponding compound to the bacterial suspension. All experiments were performed at 24 °C.

Y331F SfMCT = molecular target: T2, Y331F SfMCT (Syntrophobacter fumaroxidans, UniProt A0LNN5, Y331F); test: [14C]L-lactate transport competition assay, Y331F SfMCT; conditions: competition of [14C]L-lactate uptake
T2 construct: expressed in transfected cells; host or cells: E. coli JA202, pEXT20-SfMCT-3C-10His mutant plasmid
Protocol: The cultures were grown at 37 °C and 180 r.p.m. in an incubator shaker (Multitron, Infors HT). Protein expression was induced at OD600 ~0.5 by addition of IPTG to a final concentration of 0.25 mM. After 4 h, bacteria were pelleted (5,200 × g, 10 min, room temperature) and resuspended in uptake buffer (20 mM Bis-Tris propane-HCl (pH 6.7), 250 mM KCl) to a bacteria density of OD600 12. […] Furthermore, [3-3 H] propionic acid sodium salt ([^3H]propionate, American Radiolabeled Chemicals, specific activity 30 Ci/mmol), n-[2,3-3 H] butyric acid sodium salt ([^3H]butyrate, American Radiolabeled Chemicals, specific activity 120 Ci/mmol), and [1–14 C] pyruvic acid sodium salt ([^14C]pyruvate, specific activity 0.055 Ci/mmol American Radiolabeled Chemicals) were also used for transport experiments. […] Cpm values of each experiment were normalized with respect to the determined upper plateau value, i.e., the fitted upper plateau value corresponds to 100%. The arithmetic average of three independent experiments was calculated. […] His-tagged transporters were detected using an anti-His5 (Qiagen, catalogue number 34660, primary antibody) at a dilution of 1:3,000 and a goat anti-mouse IgG (H + L) HRP conjugate antibody (Biorad, catalogue number 172-1011, secondary antibody) at a dilution of 1:2,500.

SfMCT [2] = molecular target: T1, SfMCT; conditions: wild-type (WT) SfMCT; competition of [14C]L-lactate uptake
Protocol: The cultures were grown at 37 °C and 180 r.p.m. in an incubator shaker (Multitron, Infors HT). Protein expression was induced at OD600 ~0.5 by addition of IPTG to a final concentration of 0.25 mM. After 4 h, bacteria were pelleted (5,200 × g, 10 min, room temperature) and resuspended in uptake buffer (20 mM Bis-Tris propane-HCl (pH 6.7), 250 mM KCl) to a bacteria density of OD600 12. […] Furthermore, [3-3 H] propionic acid sodium salt ([^3H]propionate, American Radiolabeled Chemicals, specific activity 30 Ci/mmol), n-[2,3-3 H] butyric acid sodium salt ([^3H]butyrate, American Radiolabeled Chemicals, specific activity 120 Ci/mmol), and [1–14 C] pyruvic acid sodium salt ([^14C]pyruvate, specific activity 0.055 Ci/mmol American Radiolabeled Chemicals) were also used for transport experiments. […] Uptake experiments were performed in 2 ml reaction tubes (Eppendorf) at 30 °C under agitation (1,000 r.p.m., Thermomixer compact, Eppendorf). […] Bacteria were immediately pelleted by centrifugation (21,000 × g, 4 min, room temperature) and washed two times with 900 μl stop buffer. Finally, bacteria were lyzed in 50 μl 5% (w/v) sodium dodecylsulfate and transferred into a white 96-well plate (Optiplate, PerkinElmer). 150 µl of scintillation cocktail (MicroScint 40, PerkinElmer) were added before measuring each reaction for 2 min with a scintillation counter (TopCount NXT, PerkinElmer). For data analysis, the signal of the empty vector was subtracted from the transporter signal. […] Cpm values of each experiment were normalized with respect to the determined upper plateau value, i.e., the fitted upper plateau value corresponds to 100%. The arithmetic average of three independent experiments was calculated. Three independent and normalized pH-dependence curves were then averaged. For data analysis Prism6 (GraphPad Software) was used. […] Equal amounts of bacteria expressing SfMCT variants were loaded on 14% SDS/polyacrylamide gels. His-tagged transporters were detected using an anti-His5 (Qiagen, catalogue number 34660, primary antibody) at a dilution of 1:3,000 and a goat anti-mouse IgG (H + L) HRP conjugate antibody (Biorad, catalogue number 172-1011, secondary antibody) at a dilution of 1:2,500.

T2 sequence (A0LNN5 whole entry Y331F): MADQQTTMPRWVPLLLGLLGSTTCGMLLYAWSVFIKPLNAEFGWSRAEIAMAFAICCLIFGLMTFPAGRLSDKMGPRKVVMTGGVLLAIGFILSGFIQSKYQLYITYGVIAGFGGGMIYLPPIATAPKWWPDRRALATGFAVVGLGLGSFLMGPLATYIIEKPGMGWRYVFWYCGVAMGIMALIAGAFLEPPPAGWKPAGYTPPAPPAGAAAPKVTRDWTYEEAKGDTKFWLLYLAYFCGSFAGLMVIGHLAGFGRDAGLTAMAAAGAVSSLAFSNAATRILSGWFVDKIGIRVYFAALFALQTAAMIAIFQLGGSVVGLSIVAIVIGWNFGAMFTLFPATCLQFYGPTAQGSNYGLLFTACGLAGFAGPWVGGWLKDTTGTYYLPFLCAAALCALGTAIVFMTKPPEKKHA

Compound: O=C(O)c1ccccc1S [TSA, thiosalicylate]
- proton-coupled transport, change of extracellular pH (in words) (SfMCT [1]): not a substrate; also recorded: not transported
- Ki (Y331F SfMCT): 1380 µM
- Ki (SfMCT [2]): 120 µM

Source: PMC6573034 (Nature Communications, 2019)
